ChEMBL document CHEMBL1201862, “PubChem BioAssay data set” (2004)
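The compound was tested at five concentrations on cells cultured in 96-well plates, with a 48-hour exposure period. GI50: concentration for 50% inhibition of growth.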 Activity calls are given as the source filed them. Rule as the data show it: active = GI50 up to about 1.1 µM and inactive = higher.

What was measured:
Assay in all cases: NCI anticancer screen, dose series, 48 h
LOX IMVI = test system: LOX IMVI
NCI/ADR-RES = test system: NCI/ADR-RES
786-0 = test system: 786-0
SK-MEL-28 = test system: SK-MEL-28
RXF 393 = test system: RXF 393
SNB-19 = test system: SNB-19
DU-145 = test system: DU-145
NCI-H226 = test system: NCI-H226
SNB-75 = test system: SNB-75
NCI-H23 = test system: NCI-H23
HCC 2998 = test system: HCC 2998
A549 = test system: A549
CCRF-CEM = test system: CCRF-CEM
KM12 = test system: KM12
ACHN = test system: ACHN
Malme-3M = test system: Malme-3M
OVCAR-8 = test system: OVCAR-8
NCI-H460 = test system: NCI-H460
Hs-578T = test system: Hs-578T
MDA-MB-231 = test system: MDA-MB-231
MDA-MB-435 = test system: MDA-MB-435
BT-549 = test system: BT-549
SF-268 = test system: SF-268
SW-620 = test system: SW-620
T47D = test system: T47D
MDA-N = test system: MDA-N
SF-295 = test system: SF-295
COLO 205 = test system: COLO 205
HOP-62 = test system: HOP-62
RPMI-8226 = test system: RPMI-8226
HCT-116 = test system: HCT-116
OVCAR-3 = test system: OVCAR-3
SF-539 = test system: SF-539
NCI-H522 = test system: NCI-H522
MCF7 = test system: MCF7
EKVX = test system: EKVX
MOLT-4 = test system: MOLT-4
OVCAR-4 = test system: OVCAR-4
HT-29 = test system: HT-29
A498 = test system: A498
HCT-15 = test system: HCT-15
U-251 = test system: U-251
UACC-62 = test system: UACC-62
CAKI-1 = test system: CAKI-1
UACC-257 = test system: UACC-257
IGROV-1 = test system: IGROV-1
SK-MEL-2 = test system: SK-MEL-2
HL-60 = test system: HL-60
PC-3 = test system: PC-3
HOP-92 = test system: HOP-92
OVCAR-5 = test system: OVCAR-5
SK-OV-3 = test system: SK-OV-3
TK-10 = test system: TK-10
M14 = test system: M14
SN12C = test system: SN12C
K562 = test system: K562

With CCOC(=O)/C(C(=O)NC(C)C)=C(/N)N1CCOCC1 the GI50 (LOX IMVI) was > 100 µM (inactive), the GI50 (NCI/ADR-RES) was > 100 µM (inactive) and the GI50 (786-0) was > 100 µM (inactive). For the same compound, the GI50 (SK-MEL-28) was > 100 µM (inactive), the GI50 (RXF 393) was > 100 µM (inactive) and the GI50 (SNB-19) was > 100 µM (inactive). The GI50 (DU-145) was > 100 µM (inactive), the GI50 (NCI-H226) was > 100 µM (inactive) and the GI50 (SNB-75) was > 100 µM (inactive). The GI50 (NCI-H23) was > 100 µM (inactive), the GI50 (HCC 2998) was > 100 µM (inactive) and the GI50 (A549) was > 100 µM (inactive). For the same compound, the GI50 (CCRF-CEM) was > 100 µM (inactive), the GI50 (KM12) was > 100 µM (inactive) and the GI50 (ACHN) was > 100 µM (inactive). The GI50 (Malme-3M) was > 100 µM (inactive), the GI50 (OVCAR-8) was > 100 µM (inactive) and the GI50 (NCI-H460) was > 100 µM (inactive). For the same compound, the GI50 (Hs-578T) was > 100 µM (inactive), the GI50 (MDA-MB-231) was > 100 µM (inactive) and the GI50 (MDA-MB-435) was > 100 µM (inactive). For the same compound, the GI50 (BT-549) was > 100 µM (inactive), the GI50 (SF-268) was > 100 µM (inactive) and the GI50 (SW-620) was > 100 µM (inactive). The GI50 (T47D) was > 100 µM (inactive), the GI50 (MDA-N) was > 100 µM (inactive) and the GI50 (SF-295) was > 100 µM (inactive). For the same compound, the GI50 (COLO 205) was > 100 µM (inactive), the GI50 (HOP-62) was > 100 µM (inactive) and the GI50 (RPMI-8226) was > 100 µM (inactive). For the same compound, the GI50 (HCT-116) was > 100 µM (inactive), the GI50 (OVCAR-3) was > 100 µM (inactive) and the GI50 (SF-539) was > 100 µM (inactive). The GI50 (NCI-H522) was > 100 µM (inactive), the GI50 (MCF7) was > 100 µM (inactive) and the GI50 (EKVX) was > 100 µM (inactive). For the same compound, the GI50 (MOLT-4) was > 100 µM (inactive), the GI50 (OVCAR-4) was > 100 µM (inactive) and the GI50 (HT-29) was > 100 µM (inactive). For the same compound, the GI50 (A498) was > 100 µM (inactive), the GI50 (HCT-15) was over 100 µM and the GI50 (U-251) was > 100 µM (inactive). For the same compound, the GI50 (UACC-62) was > 100 µM (inactive), the GI50 (CAKI-1) was > 100 µM (inactive) and the GI50 (UACC-257) was > 100 µM (inactive). For the same compound, the GI50 (IGROV-1) was > 100 µM (inactive), the GI50 (SK-MEL-2) was > 100 µM (inactive) and the GI50 (HL-60) was > 100 µM (inactive). The GI50 (PC-3) was > 100 µM (inactive), the GI50 (HOP-92) was > 100 µM (inactive) and the GI50 (OVCAR-5) was > 100 µM (inactive). For the same compound, the GI50 (SK-OV-3) was > 100 µM (inactive), the GI50 (TK-10) was > 100 µM (inactive) and the GI50 (M14) was > 100 µM (inactive). For the same compound, the GI50 (SN12C) was > 100 µM (inactive) and the GI50 (K562) was > 100 µM (inactive).
